Reference: article PMC7501730, “Discovery of novel small molecule inhibitors of S100P with in vitro anti-metastatic effects on pancreatic cancer cells” (European Journal of Medicinal Chemistry, 2020)

Key:
S100P-RAGE interaction = molecular target: T1, S100P-RAGE interaction (Homo sapiens, UniProt P25815); assay: ELISA of S100P-RAGE binding inhibition; conditions: for IC50 / ELISA inhibition: Table 2; for IC50: analog series of hit 4, read-out: Estimated IC50; for ELISA inhibition: concentration with significant inhibition of S100P-RAGE binding, asterisks = significance by one-way ANOVA
T1 construct: His tag (N); made in house; host or cells: Escherichia coli BL21*
T1 sequence (P25815 1-95): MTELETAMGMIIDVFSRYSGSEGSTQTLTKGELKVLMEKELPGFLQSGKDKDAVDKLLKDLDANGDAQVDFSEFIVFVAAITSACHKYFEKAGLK
Procedure: The purchased computational screening hits were subjected to initial biological testing for inhibition of S100P-RAGE binding (ELISA), with cromolyn as positive control, using an adaptation of the reported ELISA for S100 family members.
Fig. 2 Effects of compounds 1–14 on S100P binding to RAGE. Human S100P (2 μM) coated wells were incubated with increasing concentrations of the compound tested, in triplicate, and exposed to human RAGE-Fc (100 nM) followed by goat anti-human secondary antibody to detect RAGE bound S100P. Data are compared to S100P/RAGE binding with no inhibitor (DMSO, 100%) and are presented as mean ± SEM; data is significant by one way ANOVA, where ∗ = p < 0.05, ∗∗ = p < 0.01 and ∗∗∗ = p < 0.001; n = 9 from 3 plates.
To generate human S100P recombinant protein, a pQE-30 ([…]) plasmid encoding S100P with N-terminal histidine tags (gifted by Dr Igor Barsukov, Liverpool University, UK), was transformed into BL21∗ competent Escherichia coli cells. Recombinant protein was purified using a HisTrap Nickel-nitrilotriacetic acid (Ni-NTA) agarose column (GE Healthcare, UK).
Purified recombinant S100P (2μM/well) in phosphate buffer (PBS; 137 mM NaCl, 2.7 mM KCl, 10 mM Na2HPO4, 1.8 mM KH2PO4, pH 7.4; supplemented with 1 mM CaCl2, 10 μM ZnCl2, and 0.5 mM MgCl2) was used for coating a 96 well plate (NunclonDelta, Fisher), and incubated overnight at 37 °C.
Following washing, S100P non-specific binding sites were blocked with 1% bovine serum albumin (BSA; Fisher, UK) in PBS for 2 h at 37 °C. Following three washes, S100P was incubated with increasing concentrations of compounds, in parallel to cromolyn and DMSO treated wells, all in triplicate. Then 30 nM recombinant human receptor for advanced glycation end products (rh/RAGE-Fc; R&D Systems) was added and incubated for 1 h at 37 °C. Controls included a negative control (S100P protein, no RAGE-Fc), a positive control (S100P protein plus RAGE), and vehicle control (0.001% DMSO in PBS) were included in each plate. After three washes in PBS, all wells were exposed to goat anti-human HRP conjugate (1:1000; Millipore) for 1 h at 37 °C in order to detect bound receptors. Subsequent to washes, wells were incubated for 20 min in the dark with 3,3′,5,5′-tetramethylbenzidene (TMB) substrate (Sigma, UK). Plates were read at 450 nm using a Multiskan Ascent spectrophotometer (Fisher Scientific, UK). All sample readings were normalized to the positive control (S100P plus RAGE-Fc). Statistical analysis was performed and graphs plotted using the GraphPad Prism software in the following way: One Way ANOVA was used to compare the effects of concentration of each compound to the effects of vehicle control (DMSO), and p values of <0.05 were considered statistically significant. A post hoc analysis was conducted using Dunnetts multiple comparisons test; results are indicated by ∗ = p < 0.05; ∗∗ = p < 0.01 and ∗∗∗ = p < 0.001.

Panc-1 cells = assay: LDH release from cells in upper Transwell chamber, Panc-1; type: cell-based, Human; conditions: Panc-1, 48 h; hit compounds 10 μM, cromolyn 10, 100 and 300 μM
Procedure: (§1) In order to exclude any possibility that reduced cell invasiveness was due to cell death during the time period of the assay, the viability of cells in the upper Transwell® chamber was assessed via measurement of LDH release. […] (Supplementary Data).
(§2) Figure S2: No significant difference in cell toxicity, measured by LDH release, is observed between treated and untreated cells in the Transwell® invasion assay. Cytotoxicity was measured using the medium recovered from the upper chamber of each Transwell ® chamber which contained BxPC-3 (A) and Panc-1 (B) cells treated with cromolyn (10 µM, 100 µM, and 300 µM) and hit compounds (10 µM) and incubated for 48 h. Data are the mean ± SEM of three independent experiments (n=3). One-way ANOVA assessed significance, and Dunnett post-hoc test is denoted by ns=P>0.05 in comparison to untreated control.

BxPC-3 cells = assay: LDH release from cells in upper Transwell chamber, BxPC-3; type: cell-based, Human; conditions: BxPC-3, 48 h; hit compounds 10 μM, cromolyn 10, 100 and 300 μM
Procedure: as §1, §2

[1] = test system: BxPC-3 cells (S100P-expressing); assay: LDH release cytotoxicity assay, BxPC-3; type: cell-based, Human; conditions: BxPC-3, 10 μM, over three days incubation, compared to vehicle control
Procedure: Metabolic activity and cytotoxicity/cytolysis were measured with the MTS (CellTiter® 96 AQueous One Solution assay, Promega) and LDH release (CytoTox-ONE™ Homogeneous Membrane Integrity assay, Promega) assays respectively, in S100P-expressing (BxPC-3) and S100P-negative (Panc-1) cell lines, at a compound concentration of 10 μM. Cromolyn was used as a positive control.
1 × 10^5 Panc-1 cells and 1x10^5 BxPC-3 cells were plated and allowed to adhere for 24 h; the cells were treated with cromolyn or the hit compounds for up to 3 days. MTS (CellTiter® 96 AQueous One Solution assay, Promega) and LDH release (CytoTox-ONE™ Homogeneous Membrane Integrity assay, Promega) assays were carried out every 24 h for a total of 3 days. MTS data was calculated in the following manner: OD for background absorbance was subtracted and all samples normalized to untreated cells in order to ascertain whether any compound-dependent effect occurred.
(§3) Since formazan formation is proportional to LDH release, data was calculated by subtracting the OD background and plotting the mean ± SEM.
10^5 BxPC3 cells were treated with 10 µM hit compounds for 24 hours, and the effect on LDH staining for each time point measured by fluorescence microplate reader.

[2] = test system: BxPC-3 cells (S100P-positive); assay: Transwell Matrigel invasion assay, BxPC-3; type: cell-based, Human; conditions: 10% FBS chemoattractant
Procedure: The effect of the S100P-binding hit compounds to inhibit cell invasion in S100P-expressing cells in vitro was measured via a Transwell invasion assay. In this assay, cells invade through the matrigel on upper Transwell chamber towards a lower chamber containing a chemoattractant.
Data is shown as mean ± SEM number of invasive cells as counted under the microscope (x100).
The Transwell invasion assay (Fisher Scientific, Germany) was performed using chambers with polyethylene terephthalate (PET) membrane filters with 8 μm pore size coated on the upper side with Matrigel (a layer of extracellular matrix (ECM) to mimic the process of the ECM invasion.
BxPC-3 and Panc-1 cells were cultured as described above for 24 h, were re-suspended and diluted in the appropriate serum-free medium to a seeding density of 2 × 10^5 cells/mL and added to the upper chambers of the Transwell invasion chambers. DMEM and RPMI-1640 media were supplemented with 10% fetal bovine serum (FBS; Sigma, USA) to act as a chemoattractant. […]
Cells that had passed through the matrigel coated membrane to the lower surface were fixed and stained with Diff-Quik stain kit (Fisher, USA) according to the manufacturer’s instructions. […] The number of invaded cells were counted in five different fields of view using the ImageJ 1.50i software (windows version of NIH Image, http://rsb.info.nih.gov/nih-image/). […]

[3] = test system: Panc-1 cells (S100P-negative); assay: LDH release cytotoxicity assay, Panc-1; type: cell-based, Human; conditions: Panc-1, 10 μM, over three days incubation, compared to vehicle control
Procedure: Metabolic activity and cytotoxicity/cytolysis were measured with the MTS (CellTiter® 96 AQueous One Solution assay, Promega) and LDH release (CytoTox-ONE™ Homogeneous Membrane Integrity assay, Promega) assays respectively, in S100P-expressing (BxPC-3) and S100P-negative (Panc-1) cell lines, at a compound concentration of 10 μM. Cromolyn was used as a positive control. […]
1 × 10^5 Panc-1 cells and 1x10^5 BxPC-3 cells were plated and allowed to adhere for 24 h; the cells were treated with cromolyn or the hit compounds for up to 3 days. […] MTS data was calculated in the following manner: OD for background absorbance was subtracted and all samples normalized to untreated cells in order to ascertain whether any compound-dependent effect occurred.
as §3
10^5 Panc- 1 cells were treated with 10 µM hit compounds for 24 hours, and the effect on LDH staining for each time point measured by fluorescence microplate reader.

SMILES | concentration with significant inhibition of S100P-RAGE binding (S100P-RAGE interaction; ELISA) [nM] | IC50 (S100P-RAGE interaction; ELISA) [nM] | ELISA inhibition (S100P-RAGE interaction) | melting point [°C] | LDH release of cells in upper Transwell chamber (Panc-1 cells) | LDH release of cells in upper Transwell chamber (BxPC-3 cells) | cytotoxicity (LDH release) [1] | inhibition of cell invasion to the lower chamber ([2]; BxPC-3, 10 μM, 48 h) | concentration with significant inhibition of invasion ([2]; BxPC-3, 48 h) [µM] | cytotoxicity (LDH release) [3] | maximum inhibition of S100P-RAGE binding (S100P-RAGE interaction; ELISA) [%]
O=C1C2C3c4ccccc4C(c4ccccc43)C2C(=O)N1c1ccc(F)cc1 (centres unmarked) [Compound 4u, 13-(4-fluorophenyl)-9,10-dihydro-9,10-[3,4]epipyrroloanthracene-12,14-dione] | ≤ 100 | 4.15 | 10 nM∗ | 250 to 253 |  |  |  |  |  |  | 
O=C(O)c1cc(=O)c2c(OCC(O)COc3cccc4oc(C(=O)O)cc(=O)c34)cccc2o1 [cromolyn] | ≥ 100 |  |  |  | no significant increase in LDH release | no significant increase in LDH release | neither the hit compounds nor cromolyn exhibited cytotoxicity | did not exhibit a statistically significant effect | ≥ 100 | neither the hit compounds nor cromolyn exhibited cytotoxicity | 56
O=C(O)c1ccc(N2C(=O)C3C4c5ccccc5C([N+](=O)[O-])(c5ccccc54)C3C2=O)cc1 (centres unmarked) [Compound 4f, 4-(9-Nitro-12,14-dioxo-9,10-dihydro-9,10-[3,4]epipyrroloanthracen-13-yl)benzoic acid] | ≤ 100 | 0.482 | <10 nM∗∗∗ | 344 to 345 |  |  |  |  |  |  | 
O=C1C2C3c4ccccc4C([N+](=O)[O-])(c4ccccc43)C2C(=O)N1c1cccc(F)c1 (centres unmarked) [Compound 4b, 13-(3-fluorophenyl)-9-nitro-9,10-dihydro-9,10-[3,4]epipyrroloanthracene-12,14-dione] | ≤ 100 |  | 100 nM∗ | 241 to 243 |  |  |  |  |  |  | 
O=C1C2C3c4ccccc4C(c4ccccc43)C2C(=O)N1c1ccccc1 (centres unmarked) [Compound 4r, 13-Phenyl-9,10-dihydro-9,10-[3,4]epipyrroloanthracene-12,14-dione] | ≤ 100 | 0.796 | 10 nM∗ | 211 to 215 |  |  |  |  |  |  | 
